The record followed here is ChEMBL document CHEMBL3112395, “Synthesis and structure-activity relationship studies of N-terminal analogues of the antimicrobial peptide tridecaptin A(1)” (J Med Chem, 2014).

Values after ≈ are worked out from the molar mass of the structure shown.

Series [1] has as its system Klebsiella pneumoniae. Briefly: Antibacterial activity against Klebsiella pneumoniae ATCC 13883 assessed as growth inhibition by broth dilution method. The format is functional.
In series [2] the test system is Enterococcus faecalis. Briefly: Antibacterial activity against Enterococcus faecalis ATCC 29212 assessed as growth inhibition by broth dilution method. Format: functional.
Series [3] deals with Acinetobacter baumannii. The series is described as follows: Antibacterial activity against Acinetobacter baumannii ATCC 19606 assessed as growth inhibition by broth dilution method. The format is functional.
Series [4] concerns Campylobacter jejuni. The series is described as follows: Antibacterial activity against Campylobacter jejuni NCTC 11168 assessed as growth inhibition by broth dilution method. Format: functional.
The test system of series [5] is Salmonella enterica. Briefly: Antibacterial activity against Salmonella enterica ATCC 13311 assessed as growth inhibition by broth dilution method. The format is functional.
Series [6] deals with Enterococcus faecium. The series is described as follows: Antibacterial activity against Enterococcus faecium ATCC 19434 assessed as growth inhibition by broth dilution method. Format: functional.
In series [7] the test system is Escherichia coli. Briefly: Antibacterial activity against Escherichia coli ATCC 25922 assessed as growth inhibition by broth dilution method. Format: functional.
Series [8] relates to Staphylococcus aureus. Briefly: Antibacterial activity against Staphylococcus aureus ATCC 29213 assessed as growth inhibition by broth dilution method. Format: functional.
The nature of series [9]: Hemolytic activity in rabbit erythrocytes at 83 ug/mL after 30 mins relative to control. Format: ADME, cell-based, Oryctolagus cuniculus, Erythrocyte. The conditions noted are these: read-out: Activity.
Series [10] relates to Listeria monocytogenes. Briefly: Antibacterial activity against Listeria monocytogenes ATCC […] assessed as growth inhibition by broth dilution method. Format: functional.
The subject of series [11] is Pseudomonas aeruginosa. The series is described as follows: Antibacterial activity against Pseudomonas aeruginosa ATCC 27853 assessed as growth inhibition by broth dilution method. The format is functional.
Series [12] is described as follows: Cytotoxicity against HEK293 cells assessed as growth inhibition after 48 hrs by MTT assay. The format is cell-based. The conditions noted are these: human, read-out: MIC.

Take `CCCC(=O)N[C@@H](C(=O)N[C@H](CCN)C(=O)NCC(=O)N[C@H](CO)C(=O)N[C@H](Cc1c[nH]c2ccccc12)C(=O)N[C@@H](CO)C(=O)N[C@@H](CCN)C(=O)N[C@H](CCN)C(=O)N[C@@H](Cc1ccccc1)C(=O)N[C@@H](CCC(=O)O)C(=O)N[C@H](C(=O)N[C@@H](C(=O)N[C@@H](C)C(=O)O)[C@@H](C)CC)C(C)C)C(C)C`: the minimum inhibitory concentration (MIC) in [1] is 25 mg/L (≈ 17.1 µM); in [2], greater than 100 mg/L; in [3], 100 mg/L (≈ 68.3 µM); in [4], 12.5 mg/L (≈ 8.53 µM); in series [5], 25 mg/L (≈ 17.1 µM); in [6], greater than 100 mg/L. Further, the MIC is 12.5 mg/L (≈ 8.53 µM) in series [7], greater than 100 mg/L in [8], greater than 100 mg/L in [10] and greater than 100 mg/L in [11]. The hemolysis at 0.5 h, 83 ug/mL in [9] is 0.8%.
For the molecule `CC[C@H](C)[C@@H](NC(=O)[C@@H](NC(=O)[C@H](CCC(=O)O)NC(=O)[C@H](Cc1ccccc1)NC(=O)[C@@H](CCN)NC(=O)[C@H](CCN)NC(=O)[C@H](CO)NC(=O)[C@@H](Cc1c[nH]c2ccccc12)NC(=O)[C@@H](CO)NC(=O)CNC(=O)[C@@H](CCN)NC(=O)[C@H](NC(=O)OCC1c2ccccc2-c2ccccc21)C(C)C)C(C)C)C(=O)N[C@@H](C)C(=O)O`, the MIC in series [1] was 6.25 mg/L (≈ 3.87 µM); in series [2], 50 mg/L (≈ 30.9 µM); in series [3], 12.5 mg/L (≈ 7.73 µM); in series [4], 0.78 mg/L (≈ 0.482 µM); in [5], 6.25 mg/L (≈ 3.87 µM); in [6], 25 mg/L (≈ 15.5 µM). In addition, the MIC was 6.25 mg/L (≈ 3.87 µM) in series [7], 100 mg/L (≈ 61.8 µM) in [8], 12.5 mg/L (≈ 7.73 µM) in series [10] and greater than 100 mg/L in series [11]. Moreover, in [9], the hemolysis at 0.5 h, 83 ug/mL was found to be 100%.
On to `CC[C@H](C)[C@@H](NC(=O)[C@@H](NC(=O)[C@H](CCC(=O)O)NC(=O)[C@H](Cc1ccccc1)NC(=O)[C@@H](CCN)NC(=O)[C@H](CCN)NC(=O)[C@H](CO)NC(=O)[C@@H](Cc1c[nH]c2ccccc12)NC(=O)[C@@H](CO)NC(=O)CNC(=O)[C@@H](CCN)NC(=O)[C@H](N)C(C)C)C(C)C)C(=O)N[C@@H](C)C(=O)O`, for which the minimal inhibitory concentration (MIC) in [1] is 50 mg/L (≈ 35.9 µM); in series [2], greater than 100 mg/L; in series [3], greater than 100 mg/L; in series [4], greater than 100 mg/L; in series [5] it was 100 mg/L (≈ 71.7 µM); in series [6], greater than 100 mg/L. Moreover, the MIC in series [7] is 100 mg/L (≈ 71.7 µM); in series [8], greater than 100 mg/L; in series [10], greater than 100 mg/L; in series [11] it was 100 mg/L (≈ 71.7 µM). Besides, in series [9], the hemolysis at 0.5 h, 83 ug/mL stood at 0.5%.
As to `CCCCCCCCCCCC(=O)N[C@@H](C(=O)N[C@H](CCN)C(=O)NCC(=O)N[C@H](CO)C(=O)N[C@H](Cc1c[nH]c2ccccc12)C(=O)N[C@@H](CO)C(=O)N[C@@H](CCN)C(=O)N[C@H](CCN)C(=O)N[C@@H](Cc1ccccc1)C(=O)N[C@@H](CCC(=O)O)C(=O)N[C@H](C(=O)N[C@@H](C(=O)N[C@@H](C)C(=O)O)[C@@H](C)CC)C(C)C)C(C)C`, the MIC in series [1] is 12.5 mg/L (≈ 7.93 µM); in [2], greater than 100 mg/L; in series [3], 50 mg/L (≈ 31.7 µM); in series [4], 0.4 mg/L (≈ 0.254 µM); in [5] it was 50 mg/L (≈ 31.7 µM); in series [6], 100 mg/L (≈ 63.4 µM). The MIC is 12.5 mg/L (≈ 7.93 µM) in series [7], greater than 100 mg/L in [8], 50 mg/L (≈ 31.7 µM) in series [10] and greater than 100 mg/L in series [11]. For the same molecule, in series [9], the hemolysis at 0.5 h, 83 ug/mL turned out to be 82.2%.
`CC[C@H](C)CC[C@@H](O)CC(=O)N[C@@H](C(=O)N[C@H](CCN)C(=O)NCC(=O)N[C@H](CO)C(=O)N[C@H](Cc1c[nH]c2ccccc12)C(=O)N[C@@H](CO)C(=O)N[C@@H](CCN)C(=O)N[C@H](CCN)C(=O)N[C@@H](Cc1ccccc1)C(=O)N[C@@H](CCC(=O)O)C(=O)N[C@H](C(=O)N[C@@H](C(=O)N[C@@H](C)C(=O)O)[C@@H](C)CC)C(C)C)C(C)C`: the minimum inhibitory concentration (MIC) in series [1] was 3.13 mg/L (≈ 2.02 µM); in series [2], greater than 100 mg/L; in series [3], 12.5 mg/L (≈ 8.06 µM); in series [4], 1.56 mg/L (≈ 1.01 µM); in series [5] it was 6.25 mg/L (≈ 4.03 µM); in [6], greater than 100 mg/L. Besides, the MIC is 3.13 mg/L (≈ 2.02 µM) in series [7], greater than 100 mg/L in series [8], 50 mg/L (≈ 32.2 µM) in [10] and 50 mg/L (≈ 32.2 µM) in series [11]. Besides, the MCC at 48 h in [12] was determined as 200 µg/mL. The hemolysis at 0.5 h, 83 ug/mL in series [9] amounted to 3.2%.
In the case of `CC[C@H](C)[C@@H](NC(=O)[C@@H](NC(=O)[C@H](CCC(=O)O)NC(=O)[C@H](Cc1ccccc1)NC(=O)[C@@H](CCN)NC(=O)[C@H](CCN)NC(=O)[C@H](CO)NC(=O)[C@@H](Cc1c[nH]c2ccccc12)NC(=O)[C@@H](CO)NC(=O)CNC(=O)[C@@H](CCN)NC(=O)[C@H](NC(=O)CCc1c2ccccc2cc2ccccc12)C(C)C)C(C)C)C(=O)N[C@@H](C)C(=O)O`, the MIC in series [1] was 12.5 mg/L (≈ 7.68 µM); in series [2] it was greater than 100 mg/L; in [3] it was 25 mg/L (≈ 15.4 µM); in [4], 1.56 mg/L (≈ 0.959 µM); in [5], 12.5 mg/L (≈ 7.68 µM); in [6], greater than 100 mg/L. The minimal inhibitory concentration (MIC) in series [7] is 6.25 mg/L (≈ 3.84 µM); in series [8] it was greater than 100 mg/L; in series [10], 50 mg/L (≈ 30.7 µM); in series [11], greater than 100 mg/L.
Turning to `CCCCCCC(=O)N[C@@H](C(=O)N[C@H](CCN)C(=O)NCC(=O)N[C@H](CO)C(=O)N[C@H](Cc1c[nH]c2ccccc12)C(=O)N[C@@H](CO)C(=O)N[C@@H](CCN)C(=O)N[C@H](CCN)C(=O)N[C@@H](Cc1ccccc1)C(=O)N[C@@H](CCC(=O)O)C(=O)N[C@H](C(=O)N[C@@H](C(=O)N[C@@H](C)C(=O)O)[C@@H](C)CC)C(C)C)C(C)C`, the minimum inhibitory concentration (MIC) in [1] was 6.25 mg/L (≈ 4.15 µM); in series [2], greater than 100 mg/L; in series [3], 12.5 mg/L (≈ 8.3 µM); in series [4], 1.56 mg/L (≈ 1.04 µM); in series [5], 12.5 mg/L (≈ 8.3 µM); in series [6], greater than 100 mg/L. The MIC was 6.25 mg/L (≈ 4.15 µM) in [7], greater than 100 mg/L in series [8], 50 mg/L (≈ 33.2 µM) in series [10] and 50 mg/L (≈ 33.2 µM) in [11].
In the case of `CC[C@H](C)CC[C@H](O)CC(=O)N[C@@H](C(=O)N[C@H](CCN)C(=O)NCC(=O)N[C@H](CO)C(=O)N[C@H](Cc1c[nH]c2ccccc12)C(=O)N[C@@H](CO)C(=O)N[C@@H](CCN)C(=O)N[C@H](CCN)C(=O)N[C@@H](Cc1ccccc1)C(=O)N[C@@H](CCC(=O)O)C(=O)N[C@H](C(=O)N[C@@H](C(=O)N[C@@H](C)C(=O)O)[C@@H](C)CC)C(C)C)C(C)C`, the MIC is 6.25 mg/L (≈ 4.03 µM) in series [1]; greater than 100 mg/L in [2]; 25 mg/L (≈ 16.1 µM) in series [3]; 1.56 mg/L (≈ 1.01 µM) in series [4]; 6.25 mg/L (≈ 4.03 µM) in series [5]; greater than 100 mg/L in series [6]. For the same molecule, the MIC in series [7] was 6.25 mg/L (≈ 4.03 µM); in series [8] it was greater than 100 mg/L; in series [10], 100 mg/L (≈ 64.5 µM); in series [11], 50 mg/L (≈ 32.2 µM).
Take `CCCCCC(=O)N[C@@H](C(=O)N[C@H](CCN)C(=O)NCC(=O)N[C@H](CO)C(=O)N[C@H](Cc1c[nH]c2ccccc12)C(=O)N[C@@H](CO)C(=O)N[C@@H](CCN)C(=O)N[C@H](CCN)C(=O)N[C@@H](Cc1ccccc1)C(=O)N[C@@H](CCC(=O)O)C(=O)N[C@H](C(=O)N[C@@H](C(=O)N[C@@H](C)C(=O)O)[C@@H](C)CC)C(C)C)C(C)C`: the minimal inhibitory concentration (MIC) was 3.13 mg/L (≈ 2.1 µM) in series [1]; greater than 100 mg/L in series [2]; 25 mg/L (≈ 16.7 µM) in series [3]; 3.13 mg/L (≈ 2.1 µM) in [4]; 6.25 mg/L (≈ 4.19 µM) in series [5]; greater than 100 mg/L in series [6]. Moreover, the MIC is 3.13 mg/L (≈ 2.1 µM) in series [7], greater than 100 mg/L in series [8], 100 mg/L (≈ 67 µM) in [10] and 50 mg/L (≈ 33.5 µM) in series [11].
